The subject of series [1] is sciatic-gastrocnemious preparation. Nature of the series: Neuromuscular blocking activity in vivo, sciatic-gastrocnemious preparation. Details: species or system male Sprague-Dawley rats. The settings on record: for ED50: iv, read-out: ED50 (effective dose causing the 50% reduction of muscular contraction). How it is done: (§1) The neuromuscular blocking activity has been evaluated:
(§2) in vivo, using the sciatic-gastrocnemious preparation, substantially following the method described by Hughes R. (Br. J. Anaesth. 44, 27, 1972). Male Sprague-Dawley rats weighing 200-250 g, anaesthetized (urethane 1,2 g/kg i.p.) and submitted to forced ventilation, were treated. The sciatic nerve was stimulated at a rate of 6 impulses per min. by means of square waves and overmaximal voltage with a duration of 0.5 msec. The left carotid artery was incannulated for the continuous registration of arterial blood pressure and heart rate.
(§3) The compounds to be tested were administered by i.v. route at increasing doses, given at intervals of at least 30 min. from one to another and, in any case, after the effect of previous administration had completely exhausted.
(§4) In addition, the time of latence (the interval between the administration and the maximal effect) and that of complete recovery have been determined.

The test system of series [2] is phrenic-diaphragm preparation. Nature of the series: Neuromuscular blocking activity in vitro, phrenic-diaphragm preparation. Details: species or system male Sprague-Dawley rats. Particulars: rat phrenic-diaphragm, 37° C., cumulative concentrations, read-out: EC50 (effective concentration able to reduce the muscular contraction of 50%). How it is done:
as §1
in vitro, using the phrenic-diaphragm preparation according to the method described by Bulbring E. (Brit. J. Pharmac. Chemother. 1, 38, 1946). The preparation, taken from male Sprague-Dawley rats weighing 200-250 g, was placed into a bath for isolated organs, thermostatically kept at 37° C. and containing a nutritional liquid oxygenated with […] carboxygen. The phrenic nerve was stimulated by means of square wave impulses (12 per min., duration 0.5 msec., overmaximal voltage). […] The dose-effect curve, determined for each of them, allowed to calculate the EC50 or effective concentration able to reduce the muscular contraction of 50% (Table 1);

Series [3] in a line: Acute toxicity (LD50) in rat. Set-up: species or system male Sprague-Dawley rats. Particulars: in vivo, iv, Litchfield and Wilcoxon. The method, then: The LD50 were then calculated according to the method of Litchfield J. T. and Wilcoxon F. J. (J. Pharmac. Exp. Ther., 95, 99, 1949).
In series [4] the test system is arterial blood pressure and heart rate. Nature of the series: Cardiovascular effects (arterial blood pressure and heart rate) in vivo. Set-up: species or system male Sprague-Dawley rats. The settings on record: rat, i.v.; for Arterial blood pressure Δ % / Heart rate Δ %: at ED50 on muscular contraction. How it is done: as §2, §3, §4
Series [5] has as its system skeletal neuromuscular junction. Particulars: known compound of the commerce; cited from earlier work.
Setting [6] is: rat, i.v., anaesthetized (urethane).

Read-outs that look alike come from different tables or passages of the source.

We go through twelve compounds from patent publication US4594421A, “Imidazopyridine compounds” (priority 1984, dated 1986).

As for `Fc1ccc(-c2c[n+]3ccccc3n2CCCCCCn2c(-c3ccc(F)cc3)c[n+]3ccccc23)cc1` [Example 1, 1,1'-(1,6-Hexamethylene)bis[2-(4'-fluoro)phenyl]imidazo[1,2-a]pyridinium perchlorate], the ED50 in series [1] (setting [6]) was found to be 3 µg/kg. Besides, in series [1] (rat, i.v.), the “Latence (interval between the administration and the maximal effect)” value is 2.2 min; the “Recovery (time of complete recovery)” value was determined as 7.9 min. Besides, the EC50 in series [2] turned out to be 15 µM. The compound also registered an LD50 in series [3] of 3.9 µmol/kg. Besides, in series [4], the “Arterial blood pressure Δ %” value is -37% and the “Heart rate Δ %” value is “+28%”.
On to `c1ccc(-c2c[n+]3ccccc3n2CCCCCCCCn2c(-c3ccccc3)c[n+]3ccccc23)cc1` [Example 2, 1,1'-(1,8-Octamethylene)bis-2-phenylimidazo[1,2-a]piridinium perchlorate], for which the ED50 in series [1] (setting [6]) amounted to 1.9 µg/kg. Besides, in series [1] (rat, i.v.), the “Latence (interval between the administration and the maximal effect)” value came to 2.2 min; the “Recovery (time of complete recovery)” value amounted to 9.2 min. Besides, the EC50 in series [2] is 11.9 µM. In series [3], this compound displayed an LD50 of 2.7 µmol/kg. For the same compound, in series [4], the “Arterial blood pressure Δ %” value is given as -45% and the “Heart rate Δ %” value is reported as “+22%”.
With `Cc1c(-c2ccccc2)n(CCCCCCCCn2c(-c3ccccc3)c(C)[n+]3ccccc23)c2cccc[n+]12` [Example 3, 1,1'-(1,8-Octamethylene)bis(2-phenyl-3-methyl)imiadazo[1,2-a]pyridinium perchlorate], the ED50 in series [1] (setting [6]) turned out to be 1.6 µg/kg. Further, in series [1] (rat, i.v.), the “Latence (interval between the administration and the maximal effect)” value was found to be 1.2 min; the “Recovery (time of complete recovery)” value amounted to 5.0 min. Besides, in series [2], the EC50 worked out at 14.3 µM. The compound also registered a median lethal dose (LD50) in series [3] of 2 µmol/kg. Moreover, in series [4], the “Arterial blood pressure Δ %” value is -28% and the “Heart rate Δ %” value was “+40%”.
As for `Cc1c(-c2ccccc2)n(CCCCn2c(-c3ccccc3)c(C)[n+]3ccccc23)c2cccc[n+]12` [Example 4, 1,1'-(1,4-Tetramethylene)bis(2-phenyl-3-methyl)imidazo[1,2-a]pyridinium perchlorate], the ED50 in series [1] (setting [6]) stood at 5 µg/kg. In series [1] (rat, i.v.), the “Latence (interval between the administration and the maximal effect)” value turned out to be 1.3 min; the “Recovery (time of complete recovery)” value was 6.2 min. For the same compound, the EC50 in series [2] came to 28.7 µM. Also, in series [3], the LD50 worked out at 4.3 µmol/kg. Also, in series [4], the “Arterial blood pressure Δ %” value is listed as -28% and the “Heart rate Δ %” value is “+1%”.
Take `COc1ccc(-c2c[n+]3ccccc3n2CCCCCCn2c(-c3ccc(OC)cc3)c[n+]3ccccc23)cc1` [Example 5, 1,1'-(1,6-Hexamethylene)bis[2-(4'-methoxy)phenyl]imidazo[1,2-a]pyridinium bromide monohydrate]: the ED50 in series [1] (setting [6]) came to 1.9 µg/kg. Also, in series [1] (rat, i.v.), the “Latence (interval between the administration and the maximal effect)” value worked out at 1.5 min; the “Recovery (time of complete recovery)” value is 6.4 min. For the same compound, in series [2], the EC50 was determined as 14.7 µM. This compound also came in with an LD50 in series [3] of 2.6 µmol/kg. For the same compound, in series [4], the “Arterial blood pressure Δ %” value is reported as -39% and the “Heart rate Δ %” value is given as “+26%”.
With `Brc1ccc(-c2c[n+]3ccccc3n2CCCCCCn2c(-c3ccc(Br)cc3)c[n+]3ccccc23)cc1` [Example 7, 1,1'-(1,6-Hexamethylene)bis[2-(4-bromophenyl)]imidazo[1,2-a]pyridinium bromide], the ED50 in series [1] (setting [6]) was found to be 3 µg/kg. In series [1] (rat, i.v.), the “Latence (interval between the administration and the maximal effect)” value was 1.5 min; the “Recovery (time of complete recovery)” value came out at 9.8 min. Besides, in series [2], the EC50 was found to be 15.4 µM. The compound also came in with an LD50 in series [3] of 6 µmol/kg. Moreover, in series [4], the “Arterial blood pressure Δ %” value is given as -50% and the “Heart rate Δ %” value was -8%.
For the compound `Cc1c(-c2ccccc2)n(CCCCCCn2c(-c3ccccc3)c(C)[n+]3ccccc23)c2cccc[n+]12` [Example 8, 1,1'-(1,6-Hexamethylene)bis(2-phenyl-3-methyl)imidazo[1,2-a]pyridinium perchlorate], the ED50 in series [1] (setting [6]) is 1.3 µg/kg. In addition, in series [1] (rat, i.v.), the “Latence (interval between the administration and the maximal effect)” value turned out to be 2.1 min; the “Recovery (time of complete recovery)” value was 7.7 min. The EC50 in series [2] was 13.6 µM. This compound also returned an LD50 in series [3] of 2 µmol/kg. Also, in series [4], the “Arterial blood pressure Δ %” value is -40% and the “Heart rate Δ %” value is listed as “+68%”.
In the case of `c1ccc(-c2c[n+]3ccccc3n2CCCCn2c(-c3ccccc3)c[n+]3ccccc23)cc1` [Example 9, 1,1'-(1,4-Tetramethylene)bis-2-phenylimidazo[1,2-a]pyridinium perchlorate], the ED50 in series [1] (setting [6]) is 3.3 µg/kg. Further, in series [1] (rat, i.v.), the “Latence (interval between the administration and the maximal effect)” value came out at 2.1 min; the “Recovery (time of complete recovery)” value is 7.0 min. The EC50 in series [2] worked out at 28.9 µM. In addition, the LD50 in series [3] was determined as 3.2 µmol/kg. Besides, in series [4], the “Arterial blood pressure Δ %” value is reported as -31% and the “Heart rate Δ %” value is listed as “+25%”.
As for `c1ccc(-c2c[n+]3ccccc3n2CCn2c(-c3ccccc3)c[n+]3ccccc23)cc1` [Example 10, 1,1'-(1,2-Ethylene)bis-2-phenylimidazo[1,2-a]pyridinium perchlorate], the ED50 in series [1] (setting [6]) is 4 µg/kg. Moreover, in series [1] (rat, i.v.), the “Latence (interval between the administration and the maximal effect)” value was 2.8 min; the “Recovery (time of complete recovery)” value was determined as 14.0 min. Besides, the EC50 in series [2] was determined as 31.4 µM. For the same compound, the median lethal dose (LD50) in series [3] turned out to be 8.8 µmol/kg. Besides, in series [4], the “Arterial blood pressure Δ %” value is -30% and the “Heart rate Δ %” value is recorded as “+28%”.
With `c1ccc(-c2c[n+]3ccccc3n2CCCCCCn2c(-c3ccccc3)c[n+]3ccccc23)cc1` [Example 11, 1,1'-(1,6-Hexamethylene)bis-2-phenylimidazo[1,2-a]pyridinium perchlorate], the median effective dose (ED50) in series [1] (setting [6]) was 2.1 µg/kg. In series [1] (rat, i.v.), the “Latence (interval between the administration and the maximal effect)” value worked out at 2.3 min; the “Recovery (time of complete recovery)” value is 8.8 min. In addition, in series [2], the EC50 amounted to 12.9 µM. In series [3], this compound returned an LD50 of 3.1 µmol/kg. In addition, in series [4], the “Arterial blood pressure Δ %” value was -40% and the “Heart rate Δ %” value is given as “+42%”.
Regarding `Cc1c(-c2ccccc2)n(CCn2c(-c3ccccc3)c(C)[n+]3ccccc23)c2cccc[n+]12` [Example 12, 1,1'-(1,2-Ethylene)bis(2-phenyl-3-methyl)imidazo[1,2-a]pyridinium perchlorate], the ED50 in series [1] (Rattus norvegicus) was found to be 5.6 µg/kg. Also, in series [1] (rat, i.v.), the “Latence (interval between the administration and the maximal effect)” value was 2.6 min; the “Recovery (time of complete recovery)” value came out at 12.2 min. Besides, the EC50 in series [2] came to 115 µM. This compound also displayed an LD50 in series [3] of 9.7 µmol/kg. In addition, in series [4], the “Arterial blood pressure Δ %” value is reported as -5% and the “Heart rate Δ %” value is on record as “+6%”. Besides, the “Arterial blood pressure Δ % at minimal active dose” value in series [4] (at minimal active dose on muscular contraction) was -24%.
Turning to `Cc1c(-c2ccccc2)n(/N=N/n2c(-c3ccccc3)c(C)[n+]3ccccc23)c2cccc[n+]12` [Fazadinium bromide, 1,1-azabis 3-methyl-2-phenylimidazo 1,2-a pyridinium bromide, reference compound], in series [5], the “known activity of the standard” value was “competitive skeletal muscle paralysing activity”. Also, the ED50 in series [1] (setting [6]) came to 1 µg/kg. Moreover, in series [1] (rat, i.v.), the “Latence (interval between the administration and the maximal effect)” value is 1.5 min; the “Recovery (time of complete recovery)” value came out at 6.6 min; the “activity in vivo” value is recorded as “active”. In series [2], the EC50 came to 13.9 µM. The LD50 in series [3] came to 1.5 µmol/kg. For the same compound, in series [4], the “Arterial blood pressure Δ %” value is recorded as -16% and the “Heart rate Δ %” value is on record as “+30%”.
